Changes are numbered by the printed parent chain.
Columns and labels:
[1] = tested on: MOLM13^FLT3-ITD cells; assay: MOLM13 cell viability; format: cell-based; details: Homo sapiens, MOLM-13, 72 h, read-out: MOLM13^FLT3-ITD IC50
[2] = molecular target: T1, FLT3 (D835H) (Homo sapiens, UniProt P36888, D835H); assay: Kd determination; format: binding
T1 sequence (P36888 27-993 D835H): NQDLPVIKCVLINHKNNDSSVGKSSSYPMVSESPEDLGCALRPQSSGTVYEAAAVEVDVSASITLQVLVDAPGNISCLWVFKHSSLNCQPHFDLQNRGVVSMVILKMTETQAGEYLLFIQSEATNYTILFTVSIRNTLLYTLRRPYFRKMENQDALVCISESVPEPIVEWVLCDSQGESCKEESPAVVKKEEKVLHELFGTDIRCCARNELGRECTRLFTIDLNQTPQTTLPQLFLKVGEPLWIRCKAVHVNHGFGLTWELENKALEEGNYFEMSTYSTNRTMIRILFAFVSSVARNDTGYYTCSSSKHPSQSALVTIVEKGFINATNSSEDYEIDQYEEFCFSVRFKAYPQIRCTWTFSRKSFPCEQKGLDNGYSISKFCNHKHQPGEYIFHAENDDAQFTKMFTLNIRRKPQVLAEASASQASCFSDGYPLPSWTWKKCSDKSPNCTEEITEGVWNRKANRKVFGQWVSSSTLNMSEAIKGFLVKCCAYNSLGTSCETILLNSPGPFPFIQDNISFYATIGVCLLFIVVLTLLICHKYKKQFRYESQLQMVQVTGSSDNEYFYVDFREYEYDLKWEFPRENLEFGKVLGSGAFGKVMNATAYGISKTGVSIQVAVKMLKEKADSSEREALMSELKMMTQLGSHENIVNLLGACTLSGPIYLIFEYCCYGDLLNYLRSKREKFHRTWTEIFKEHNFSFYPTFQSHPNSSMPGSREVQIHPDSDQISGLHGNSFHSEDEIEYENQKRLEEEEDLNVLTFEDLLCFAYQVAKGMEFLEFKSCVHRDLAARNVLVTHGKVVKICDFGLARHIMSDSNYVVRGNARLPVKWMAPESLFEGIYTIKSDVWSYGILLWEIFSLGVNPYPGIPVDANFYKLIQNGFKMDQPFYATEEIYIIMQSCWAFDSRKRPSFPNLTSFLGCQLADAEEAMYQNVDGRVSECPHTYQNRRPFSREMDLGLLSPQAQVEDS

[3] = molecular target: T2, FLT3-autoinhibited (Homo sapiens, UniProt P36888); assay: Kd determination; format: binding
T2 sequence (P36888 564-993 limits assumed): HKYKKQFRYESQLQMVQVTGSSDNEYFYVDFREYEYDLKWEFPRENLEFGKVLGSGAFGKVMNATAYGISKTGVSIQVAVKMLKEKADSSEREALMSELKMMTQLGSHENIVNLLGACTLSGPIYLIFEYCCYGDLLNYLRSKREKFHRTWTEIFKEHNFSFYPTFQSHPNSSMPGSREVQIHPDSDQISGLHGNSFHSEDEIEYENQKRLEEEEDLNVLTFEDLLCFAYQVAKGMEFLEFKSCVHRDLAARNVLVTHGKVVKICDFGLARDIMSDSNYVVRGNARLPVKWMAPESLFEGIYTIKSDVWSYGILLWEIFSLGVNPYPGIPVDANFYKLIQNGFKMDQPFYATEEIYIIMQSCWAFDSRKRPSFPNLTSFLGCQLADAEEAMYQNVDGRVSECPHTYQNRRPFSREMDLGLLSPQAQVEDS

[4] = molecular target: T3, FLT3 (K663Q) (Homo sapiens, UniProt P36888, K663Q); assay: Kd determination; format: binding
T3 sequence (P36888 27-993 K663Q): T1 sequence (P36888 27-993 D835H) with K637Q, H809D

IC50 [1] [nM]	Kd [2] [nM]	Kd [3] [nM]	Kd [4] [nM]	Structure (SMILES)
620	22	1100	110	c1cncc(-c2cccc(Nc3nccc(NC4CCCCC4)n3)c2)c1 [Compound 1, N^4-Cyclohexyl-N^2-(3-(pyridin-3-yl)phenyl)pyrimidine-2,4-diamine]
136	1.2	78	13	CC(C)Nc1ccnc(Nc2cccc(-c3cccnc3)c2)n1 [Compound 5e, N^4-Isopropyl-N^2-(3-(pyridin-3-yl)phenyl)pyrimidine-2,4-diamine]
> 10000	> 10000	> 10000	> 10000	CC(C)Nc1ccnc(Nc2ccccc2-c2ccccc2)n1 [Compound 6a, N^2-([1,1′-Biphenyl]-2-yl)-N^4-isopropylpyrimidine-2,4-diamine]
